Experiments:
Assay in all cases: biochemical
Design in all cases: DiscoveRx KINOMEscan competition binding, percent of DMSO control signal at 100 nM
Settings in all cases: read-out: Fig. 4a / Percent Control / Compound 1; percent of DMSO control, competition binding
PIP5K1A = PIP5K1A (Homo sapiens, UniProt Q99755)
TLK1 = TLK1 (Homo sapiens, UniProt Q9UKI8)
EGFR = EGFR (Homo sapiens, UniProt P00533)
GRK7 = GRK7 (Homo sapiens, UniProt Q8WTQ7)
SRPK2 = SRPK2 (Homo sapiens, UniProt P78362)
ACVR2A = ACVR2A (Homo sapiens, UniProt P27037)
TLK2 = TLK2 (Homo sapiens, UniProt Q86UE8)
FLT3(D835V) = FLT3(D835V) (Homo sapiens, UniProt P36888, D835V)
GSK3A = GSK3A (Homo sapiens, UniProt P49840)
[1] = molecular target: T1, ABL1(T315I)-phosphorylated (Homo sapiens, UniProt P00519, T315I)
T1 construct: phosphorylated

PRKCI = PRKCI (Homo sapiens, UniProt P41743)
KIT(D816H) = KIT(D816H) (Homo sapiens, UniProt P10721, D816H)
NEK10 = NEK10 (Homo sapiens, UniProt Q6ZWH5)
Chain of NEK10 (Q6ZWH5 whole entry): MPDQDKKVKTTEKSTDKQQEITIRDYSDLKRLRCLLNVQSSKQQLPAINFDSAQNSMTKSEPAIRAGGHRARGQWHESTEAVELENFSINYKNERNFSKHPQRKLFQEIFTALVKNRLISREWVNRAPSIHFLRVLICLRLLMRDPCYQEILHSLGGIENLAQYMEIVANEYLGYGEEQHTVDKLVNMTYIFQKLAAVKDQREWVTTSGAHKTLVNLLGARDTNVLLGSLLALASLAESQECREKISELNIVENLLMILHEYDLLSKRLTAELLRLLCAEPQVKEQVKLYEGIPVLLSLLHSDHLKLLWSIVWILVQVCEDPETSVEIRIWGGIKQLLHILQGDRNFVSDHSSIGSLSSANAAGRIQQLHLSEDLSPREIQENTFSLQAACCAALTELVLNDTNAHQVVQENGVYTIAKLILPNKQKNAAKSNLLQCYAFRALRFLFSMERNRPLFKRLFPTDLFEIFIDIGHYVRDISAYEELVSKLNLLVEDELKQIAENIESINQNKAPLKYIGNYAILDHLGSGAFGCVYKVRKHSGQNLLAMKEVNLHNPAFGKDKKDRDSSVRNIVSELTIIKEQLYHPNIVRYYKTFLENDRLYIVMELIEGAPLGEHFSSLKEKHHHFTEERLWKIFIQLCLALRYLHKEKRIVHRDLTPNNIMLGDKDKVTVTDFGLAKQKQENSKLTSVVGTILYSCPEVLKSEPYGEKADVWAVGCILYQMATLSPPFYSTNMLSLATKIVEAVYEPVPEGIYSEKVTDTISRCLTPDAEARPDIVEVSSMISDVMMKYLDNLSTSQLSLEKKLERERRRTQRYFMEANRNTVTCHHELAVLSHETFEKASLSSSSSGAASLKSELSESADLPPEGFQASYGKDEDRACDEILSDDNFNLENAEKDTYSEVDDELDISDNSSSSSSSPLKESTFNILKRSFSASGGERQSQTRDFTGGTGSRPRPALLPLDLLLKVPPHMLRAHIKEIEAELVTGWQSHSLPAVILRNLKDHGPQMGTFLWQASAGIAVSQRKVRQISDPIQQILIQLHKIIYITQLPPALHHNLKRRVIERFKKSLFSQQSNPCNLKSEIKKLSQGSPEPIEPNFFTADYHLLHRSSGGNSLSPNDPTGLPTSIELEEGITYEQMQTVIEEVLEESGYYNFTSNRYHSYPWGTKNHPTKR

EPHB3 = EPHB3 (Homo sapiens, UniProt P54753)
Chain of EPHB3 (P54753 whole entry): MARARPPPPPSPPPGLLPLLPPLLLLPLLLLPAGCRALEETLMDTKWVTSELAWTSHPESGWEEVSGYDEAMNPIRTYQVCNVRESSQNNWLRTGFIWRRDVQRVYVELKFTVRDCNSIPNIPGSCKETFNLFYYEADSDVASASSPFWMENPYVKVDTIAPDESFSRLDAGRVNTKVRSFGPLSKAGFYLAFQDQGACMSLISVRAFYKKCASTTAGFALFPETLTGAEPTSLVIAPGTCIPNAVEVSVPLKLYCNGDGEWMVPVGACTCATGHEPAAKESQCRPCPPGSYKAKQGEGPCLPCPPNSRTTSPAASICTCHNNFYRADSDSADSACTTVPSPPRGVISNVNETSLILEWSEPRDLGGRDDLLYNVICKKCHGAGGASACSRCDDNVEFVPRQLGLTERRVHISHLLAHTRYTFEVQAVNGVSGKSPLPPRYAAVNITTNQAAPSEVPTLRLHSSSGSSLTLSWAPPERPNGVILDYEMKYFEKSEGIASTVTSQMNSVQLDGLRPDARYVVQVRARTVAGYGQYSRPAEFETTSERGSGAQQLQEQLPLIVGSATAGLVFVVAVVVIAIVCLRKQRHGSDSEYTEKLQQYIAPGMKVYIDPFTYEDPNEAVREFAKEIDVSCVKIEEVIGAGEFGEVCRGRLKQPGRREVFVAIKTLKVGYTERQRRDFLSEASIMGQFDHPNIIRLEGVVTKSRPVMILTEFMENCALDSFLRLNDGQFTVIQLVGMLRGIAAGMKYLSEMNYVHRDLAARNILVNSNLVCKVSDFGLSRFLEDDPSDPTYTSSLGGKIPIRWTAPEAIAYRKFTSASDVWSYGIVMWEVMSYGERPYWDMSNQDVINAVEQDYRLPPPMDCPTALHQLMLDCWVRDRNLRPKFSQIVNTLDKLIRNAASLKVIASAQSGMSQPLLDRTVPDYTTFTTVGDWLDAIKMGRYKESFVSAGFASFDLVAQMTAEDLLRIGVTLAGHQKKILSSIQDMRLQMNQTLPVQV

CSNK2A1 = CSNK2A1 (Homo sapiens, UniProt P68400)
Chain of CSNK2A1 (P68400 whole entry): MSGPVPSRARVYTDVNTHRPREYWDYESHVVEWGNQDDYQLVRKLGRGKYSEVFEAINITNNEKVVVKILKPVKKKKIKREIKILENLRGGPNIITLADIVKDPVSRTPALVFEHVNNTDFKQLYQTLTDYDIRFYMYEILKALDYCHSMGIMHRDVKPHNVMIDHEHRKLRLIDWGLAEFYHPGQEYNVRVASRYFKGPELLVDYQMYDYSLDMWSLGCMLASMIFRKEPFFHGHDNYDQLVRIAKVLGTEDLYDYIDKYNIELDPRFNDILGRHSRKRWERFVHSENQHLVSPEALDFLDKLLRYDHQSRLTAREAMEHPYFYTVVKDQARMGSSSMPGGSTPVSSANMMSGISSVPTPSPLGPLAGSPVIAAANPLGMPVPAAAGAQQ

NLK = NLK (Homo sapiens, UniProt Q9UBE8)
WNK2 = WNK2 (Homo sapiens, UniProt Q9Y3S1)
FRK = FRK (Homo sapiens, UniProt P42685)
PAK7 = molecular target: T2, PAK7 (Homo sapiens, UniProt Q9P286)
T2 construct: gene PAK5

FGFR3 = FGFR3 (Homo sapiens, UniProt P22607)
[2] = molecular target: T3, ABL1(T315I)-nonphosphorylated (Homo sapiens, UniProt P00519, T315I)
T3 construct: nonphosphorylated

INSR = INSR (Homo sapiens, UniProt P06213)
NEK3 = NEK3 (Homo sapiens, UniProt P51956)
FGFR3(G697C) = FGFR3(G697C) (Homo sapiens, UniProt P22607, G697C)
GRK1 = GRK1 (Homo sapiens, UniProt Q15835)
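Further: KINOMEscan kinase panel binding assay, signal normalized between DMSO as 100% and a positive control compound as 0%.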

Chain of PIP5K1A (Q99755 whole entry): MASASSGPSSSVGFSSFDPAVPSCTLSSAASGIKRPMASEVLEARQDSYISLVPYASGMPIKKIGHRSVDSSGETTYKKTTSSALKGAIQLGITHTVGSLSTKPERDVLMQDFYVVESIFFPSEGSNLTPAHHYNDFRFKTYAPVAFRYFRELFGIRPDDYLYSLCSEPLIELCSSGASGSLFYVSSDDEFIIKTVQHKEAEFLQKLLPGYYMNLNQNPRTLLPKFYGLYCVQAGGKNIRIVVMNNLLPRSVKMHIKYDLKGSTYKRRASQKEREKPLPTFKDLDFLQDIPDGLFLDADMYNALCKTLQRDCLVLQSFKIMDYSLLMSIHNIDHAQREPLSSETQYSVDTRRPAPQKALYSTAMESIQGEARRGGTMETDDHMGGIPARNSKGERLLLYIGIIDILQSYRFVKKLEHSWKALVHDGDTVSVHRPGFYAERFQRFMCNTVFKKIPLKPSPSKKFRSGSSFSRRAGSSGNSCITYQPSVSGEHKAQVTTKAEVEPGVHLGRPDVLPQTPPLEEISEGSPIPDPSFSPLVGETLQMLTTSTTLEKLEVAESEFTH
Chain of TLK1 (Q9UKI8 whole entry): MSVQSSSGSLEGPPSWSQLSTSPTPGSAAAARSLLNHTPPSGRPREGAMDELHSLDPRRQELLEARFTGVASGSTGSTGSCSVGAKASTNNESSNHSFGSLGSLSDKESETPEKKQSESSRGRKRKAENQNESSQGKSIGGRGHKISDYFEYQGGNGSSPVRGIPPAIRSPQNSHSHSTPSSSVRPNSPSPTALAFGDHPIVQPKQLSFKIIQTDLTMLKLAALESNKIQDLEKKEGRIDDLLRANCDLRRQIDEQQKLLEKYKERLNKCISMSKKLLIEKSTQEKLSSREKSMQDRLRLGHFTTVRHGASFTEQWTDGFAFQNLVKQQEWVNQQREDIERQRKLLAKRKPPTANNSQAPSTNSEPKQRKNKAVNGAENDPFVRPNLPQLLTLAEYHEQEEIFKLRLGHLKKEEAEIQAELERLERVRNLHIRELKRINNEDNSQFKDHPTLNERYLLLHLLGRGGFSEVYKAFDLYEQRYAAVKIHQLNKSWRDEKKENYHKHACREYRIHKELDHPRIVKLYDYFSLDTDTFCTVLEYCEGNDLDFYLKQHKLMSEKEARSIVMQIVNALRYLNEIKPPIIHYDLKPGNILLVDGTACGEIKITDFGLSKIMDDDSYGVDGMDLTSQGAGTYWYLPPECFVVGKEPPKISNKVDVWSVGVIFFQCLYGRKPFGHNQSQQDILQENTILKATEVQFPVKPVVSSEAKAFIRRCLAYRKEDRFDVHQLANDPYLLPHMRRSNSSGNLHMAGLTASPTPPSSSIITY
Chain of EGFR (P00533 whole entry): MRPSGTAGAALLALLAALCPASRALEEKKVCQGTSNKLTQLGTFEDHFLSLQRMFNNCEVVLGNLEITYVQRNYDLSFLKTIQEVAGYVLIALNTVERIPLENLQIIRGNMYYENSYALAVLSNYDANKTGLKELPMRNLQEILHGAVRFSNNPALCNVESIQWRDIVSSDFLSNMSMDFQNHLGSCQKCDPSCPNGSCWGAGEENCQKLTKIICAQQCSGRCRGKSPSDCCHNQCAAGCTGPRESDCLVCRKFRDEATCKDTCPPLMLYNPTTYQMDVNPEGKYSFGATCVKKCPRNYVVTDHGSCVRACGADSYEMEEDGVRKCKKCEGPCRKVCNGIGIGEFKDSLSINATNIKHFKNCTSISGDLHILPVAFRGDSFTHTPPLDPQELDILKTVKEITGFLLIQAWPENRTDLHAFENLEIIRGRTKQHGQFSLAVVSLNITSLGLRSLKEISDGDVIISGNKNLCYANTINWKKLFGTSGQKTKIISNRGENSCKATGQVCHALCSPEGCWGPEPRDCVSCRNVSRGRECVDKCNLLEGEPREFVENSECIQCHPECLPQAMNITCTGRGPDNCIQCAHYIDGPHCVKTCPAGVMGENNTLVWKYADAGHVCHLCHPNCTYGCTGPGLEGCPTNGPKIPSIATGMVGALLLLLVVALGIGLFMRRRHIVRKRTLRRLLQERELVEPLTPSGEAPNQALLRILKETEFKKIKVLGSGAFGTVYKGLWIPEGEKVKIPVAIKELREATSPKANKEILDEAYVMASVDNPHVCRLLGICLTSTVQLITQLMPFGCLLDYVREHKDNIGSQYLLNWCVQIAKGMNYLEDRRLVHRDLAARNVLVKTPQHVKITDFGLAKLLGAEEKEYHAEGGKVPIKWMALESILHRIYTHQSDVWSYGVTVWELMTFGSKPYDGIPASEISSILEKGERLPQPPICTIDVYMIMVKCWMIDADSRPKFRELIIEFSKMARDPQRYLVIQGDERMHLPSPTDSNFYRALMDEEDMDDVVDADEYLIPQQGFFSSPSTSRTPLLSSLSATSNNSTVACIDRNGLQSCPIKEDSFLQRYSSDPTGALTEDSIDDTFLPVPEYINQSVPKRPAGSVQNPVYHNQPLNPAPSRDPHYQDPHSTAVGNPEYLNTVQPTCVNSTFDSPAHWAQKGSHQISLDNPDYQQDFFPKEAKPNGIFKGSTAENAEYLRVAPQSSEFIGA

SMILES: Cc1cnc2nc1Nc1cccc(c1)COCc1cc(ccc1OCCN1CCCC1)N2 [Compound 1]
- remaining binding at 0.1 µM (PIP5K1A): 49%
- remaining binding at 0.1 µM (TLK1): 100%
- remaining binding at 0.1 µM (EGFR): 81%
- remaining binding at 0.1 µM (GRK7): 93%
- remaining binding at 0.1 µM (SRPK2): 100%
- remaining binding at 0.1 µM (ACVR2A): 99%
- remaining binding at 0.1 µM (TLK2): 100%
- remaining binding at 0.1 µM (FLT3(D835V)): 3.3%
- remaining binding at 0.1 µM (GSK3A): 100%
- remaining binding at 0.1 µM [1]: 49%
- remaining binding at 0.1 µM (PRKCI): 80%
- remaining binding at 0.1 µM (KIT(D816H)): 60%
- remaining binding at 0.1 µM (NEK10): 95%
- remaining binding at 0.1 µM (EPHB3): 100%
- remaining binding at 0.1 µM (CSNK2A1): 57%
- remaining binding at 0.1 µM (NLK): 95%
- remaining binding at 0.1 µM (WNK2): 100%
- remaining binding at 0.1 µM (FRK): 84%
- remaining binding at 0.1 µM (PAK7): 84%
- remaining binding at 0.1 µM (FGFR3): 95%
- remaining binding at 0.1 µM [2]: 80%
- remaining binding at 0.1 µM (INSR): 84%
- remaining binding at 0.1 µM (NEK3): 90%
- remaining binding at 0.1 µM (FGFR3(G697C)): 94%
- remaining binding at 0.1 µM (GRK1): 77%

Source: publication PMC10382584, “Macrocyclization of linear molecules by deep learning to facilitate macrocyclic drug candidates discovery” (Nature Communications, 2023)
